This series concerns CCRIS mutagenicity, Ames/micronucleus/aberration tests. The series can be described thus: CCRIS mutagenicity studies.
Setting [1] is: Test System: AMES SALMONELLA TYPHIMURIUM, Strain/Indicator: TA98, Metabolic Activation: NONE, Method: STANDARD PLATE.
Where [2] appears, read: Test System: AMES SALMONELLA TYPHIMURIUM, Strain/Indicator: TA98, Metabolic Activation: RAT, LIVER, S-9, AROCLOR 1254, Method: STANDARD PLATE.
Setting [3] is: Test System: AMES SALMONELLA TYPHIMURIUM, Strain/Indicator: TA100, Metabolic Activation: NONE, Method: STANDARD PLATE.
Setting [4] is: Test System: AMES SALMONELLA TYPHIMURIUM, Strain/Indicator: TA100, Metabolic Activation: RAT, LIVER, S-9, AROCLOR 1254, Method: STANDARD PLATE.

Active and inactive are the calls of the source. No rule for the calls is given here.

As to `Cc1cccnc1`, the mutagenic call runs as follows: (Test System: AMES SALMONELLA TYPHIMURIUM, Strain/Indicator: TA97, Metabolic Activation: NONE, Method: STANDARD PLATE) “inactive; negative”; (Test System: AMES SALMONELLA TYPHIMURIUM, Strain/Indicator: TA97, Metabolic Activation: RAT, LIVER, S-9, AROCLOR 1254, Method: STANDARD PLATE) “inactive; negative”; under setting [1], “inactive; negative”; under setting [2], “inactive; negative”; under setting [3], “inactive; negative”; under setting [4], “inactive; negative”. Moreover, the mutagenic call by setting is: (Test System: AMES SALMONELLA TYPHIMURIUM, Strain/Indicator: TA102, Metabolic Activation: NONE, Method: STANDARD PLATE) “inactive; negative”; (Test System: AMES SALMONELLA TYPHIMURIUM, Strain/Indicator: TA102, Metabolic Activation: RAT, LIVER, S-9, AROCLOR 1254, Method: STANDARD PLATE) “inactive; negative”.
Consider `c1ccc2c(c1)cc1ccc3cc4ccccc4c4ccc2c1c34`, for which the mutagenic call is, setting by setting: under setting [1], “inactive; negative”; under setting [2], “active; positive”; under setting [3], “inactive; negative”; under setting [4], “active; positive”; (Test System: AMES SALMONELLA TYPHIMURIUM, Strain/Indicator: TA1537, Metabolic Activation: NONE, Method: STANDARD PLATE) “inactive; negative”; (Test System: AMES SALMONELLA TYPHIMURIUM, Strain/Indicator: TA1537, Metabolic Activation: RAT, LIVER, S-9, AROCLOR 1254, Method: STANDARD PLATE) “inactive; negative”. The mutagenic call (Test System: AMES SALMONELLA TYPHIMURIUM, Strain/Indicator: TA1538, Metabolic Activation: NONE, Method: STANDARD PLATE) is “inactive; negative”; the mutagenic call (Test System: AMES SALMONELLA TYPHIMURIUM, Strain/Indicator: TA1538, Metabolic Activation: RAT, LIVER, S-9, PHENOBARBITAL, Method: STANDARD PLATE) was “active; positive”; the mutagenic call (Test System: HUMAN H1A1V2 CELLS, Strain/Indicator: TK LOCUS, Metabolic Activation: NONE, Method: SUSPENSION/PLATE) was “active; positive”.
Take `CC(/C=C(/C#N)c1ccc(F)cc1)C(c1ccccc1)C(C#N)c1ccc(F)cc1` (stereo not drawn): under setting [3], the mutagenic call is “inactive; negative”.
For `Cc1ccc2c(ccc3cc4ccccc4cc32)c1`, the mutagenic call by setting is: (Test System: AMES SALMONELLA TYPHIMURIUM, Strain/Indicator: TA100, Metabolic Activation: RAT, INTACT HEPATOCYTES, AROCLOR 1254, Method: PREINCUBATION) “inactive; negative”; (Test System: AMES SALMONELLA TYPHIMURIUM, Strain/Indicator: TA100, Metabolic Activation: RAT, NADPH-FORTIFIED HOMOGENIZED HEPATOCYTES, AROCLOR 1254, Method: PREINCUBATION) “active; positive”; (Test System: AMES SALMONELLA TYPHIMURIUM, Strain/Indicator: TA100, Metabolic Activation: RAT, SONICATED HEPATOCYTES, AROCLOR 1254, Method: PREINCUBATION) “active; positive”.
For `CC1=CC(C=O)C(C=O)=C[C@@H]2CC(C)(C)C[C@H]12` (stereo partly drawn), the mutagenic call under setting [1] was “inactive; negative”; the mutagenic call under setting [3] is “inactive; negative”; the mutagenic call (Test System: AMES SALMONELLA TYPHIMURIUM, Strain/Indicator: TA2637, Metabolic Activation: NONE, Method: STANDARD PLATE) is “inactive; negative”; the mutagenic call (Test System: CHINESE HAMSTER V-79, Strain/Indicator: V-79/6-THIOGUANINE (HGPRT), Metabolic Activation: NONE) is “inactive; negative”.
Turning to `CC(COc1ccccc1)N(CCCl)Cc1ccccc1` (stereo not drawn), the mutagenic call is “active; positive” (Test System: AMES SALMONELLA TYPHIMURIUM, Strain/Indicator: TA97, Metabolic Activation: HAMSTER, LIVER, S-9, AROCLOR 1254 (10%), Method: PREINCUBATION); “active; positive” (Test System: AMES SALMONELLA TYPHIMURIUM, Strain/Indicator: TA97, Metabolic Activation: NONE, Method: PREINCUBATION); “active; positive” (Test System: AMES SALMONELLA TYPHIMURIUM, Strain/Indicator: TA97, Metabolic Activation: RAT, LIVER, S-9, AROCLOR 1254 (10%), Method: PREINCUBATION); “active; positive” (Test System: AMES SALMONELLA TYPHIMURIUM, Strain/Indicator: TA98, Metabolic Activation: HAMSTER, LIVER, S-9, AROCLOR 1254 (10%), Method: PREINCUBATION); “active; positive” (Test System: AMES SALMONELLA TYPHIMURIUM, Strain/Indicator: TA98, Metabolic Activation: NONE, Method: PREINCUBATION); “active; positive” (Test System: AMES SALMONELLA TYPHIMURIUM, Strain/Indicator: TA98, Metabolic Activation: RAT, LIVER, S-9, AROCLOR 1254 (10%), Method: PREINCUBATION). In addition, the mutagenic call (Test System: AMES SALMONELLA TYPHIMURIUM, Strain/Indicator: TA100, Metabolic Activation: HAMSTER, LIVER, S-9, AROCLOR 1254 (10%), Method: PREINCUBATION) is “active; positive”; the mutagenic call (Test System: AMES SALMONELLA TYPHIMURIUM, Strain/Indicator: TA100, Metabolic Activation: NONE, Method: PREINCUBATION) is “active; positive”; the mutagenic call (Test System: AMES SALMONELLA TYPHIMURIUM, Strain/Indicator: TA100, Metabolic Activation: RAT, LIVER, S-9, AROCLOR 1254 (10%), Method: PREINCUBATION) was “active; positive”; the mutagenic call (Test System: AMES SALMONELLA TYPHIMURIUM, Strain/Indicator: TA1535, Metabolic Activation: HAMSTER, LIVER, S-9, AROCLOR 1254 (10%), Method: PREINCUBATION) was “active; positive”; the mutagenic call (Test System: AMES SALMONELLA TYPHIMURIUM, Strain/Indicator: TA1535, Metabolic Activation: NONE, Method: PREINCUBATION) was “inactive; negative”; the mutagenic call (Test System: AMES SALMONELLA TYPHIMURIUM, Strain/Indicator: TA1535, Metabolic Activation: RAT, LIVER, S-9, AROCLOR 1254 (10%), Method: PREINCUBATION) was “active; positive”.
With `CC(Cl)C(=O)NCc1ccccc1` (stereo not drawn), the mutagenic call was “inactive; negative” (Test System: AMES SALMONELLA TYPHIMURIUM, Strain/Indicator: TA100, Metabolic Activation: MOUSE, LIVER, S-9, AROCLOR 1254, Method: STANDARD PLATE) and “inactive; negative” under setting [3].
Turning to `C1=Cc2cc3cc4ccccc4cc3c3cccc1c23`, the mutagenic call is, setting by setting: (Test System: CHINESE HAMSTER OVARY, Strain/Indicator: V-79/6-THIOGUANINE, Metabolic Activation: RAT, LIVER, S-9, AROCLOR 1254, Method: FLASK ASSAY) “active; positive”; (Test System: CHINESE HAMSTER OVARY, Strain/Indicator: V-79/6-THIOGUANINE, Metabolic Activation: SHE CELL MEDIATED, Method: FLASK ASSAY) “inactive; negative”; (Test System: CHINESE HAMSTER V-79, Strain/Indicator: V-79/6-THIOGUANINE, Metabolic Activation: RAT, LIVER, S-9, AROCLOR 1254, Method: SUSPENSION/PLATE) “active; positive”.
Take `Clc1ccccc1-c1ccccc1`: the mutagenic call (End Point: In vivo mutagenicity, Test System: Liver, Species: Rat, Strain/Sex: Big Blue/Male, Route: Intraperitoneal) was “active; positive; statistically significant increase of mutant frequency of liver laci g”.

Values taken from PubChem BioAssay AID1259407 (Chemical Carcinogenesis Research Information System (CCRIS), 2018).
